Results published in US4742073A (priority 1982, dated 1988).
Read-outs that look alike come from different tables or passages of the source.

Columns and labels:
physchem = format: physicochemical
From the text: The assays would allow a formation of isopilocarpine or isopilocarpic acid of 1% to be detected.

[1] = Apparent partition coefficient 1-octanol/phosphate buffer pH 7.4; format: physicochemical; settings: for log P: pH 7.4
[2] = pKa, solubility and other physicochemical properties; settings: in words
eyes of the rabbits = assay: Ophthalmic pupillary diameter or miosis study; format: in vivo, male albino rabbits; settings: for duration of miotic effect compared with pilocarpine / overall miotic effect compared with pilocarpine: 25 μl topical, pH 4.5, FIG. 3, in words; for duration of miotic activity of the di-esters: FIG. 5, 0.5% pilocarpine nitrate equivalent
Method: Twenty-five microliter volumes of each solution were administered by topical ophthalmic instillation to male albino rabbits, and pupillary diameter changes or miotic activities in the eyes of the rabbits were recorded as a function of time, and were compared. A detailed description of the procedure for the miosis study is given in Mitra & Mikkelson (1982) and references cited therein. […] Thus, the miotic activity observed after administration of a solution of O-benzoyl pilocarpic acid 4-methylbenzyl ester lasted for 4.5 hours as shown in FIG. 4. The equivalent concentrations and pH were the same as in the above experiment.
The compounds are: 4-methylbenzyl pilocarpic acid ester, O-benzoyl pilocarpic acid 4-methylbenzyl ester, and O-acetyl pilocarpic acid 4-methylbenzyl ester. In each of these three derivatives the R1 -substituent is the 4-methylbenzyloxy group. […] Duration of the activity of the di-esters is seen to be approximately 4.5 hours.
In FIG. 6 the compounds are the O-benzoyl 4-chlorobenzyl, the O-phenylacetyl benzyl, and the O-3-chlorobenzoyl benzyl pilocarpic acid esters. In FIG. 7 the compounds are the O-benzoyl benzyl, the O-butyryl 4-methylbenzyl and the O-nicotionyl benzyl pilocarpic acid esters. […] Again, the extended duration is apparent. Thus, even though the dosage level is less than in the previous experiments, the miotic effect is apparent for up to 4.5 hours after administration.

[3] = Shelf-life / stability of aqueous solutions; format: physicochemical
Method: At such pH values the stability is much increased as compared with that at neutral and basic pH values. […] At these pH values solutions of the compound were predicted to have shelf-lives in excess of 8 years at 25° C. and 20 years at 20° C. as determined on the basis of temperature-accelerated kinetic stability studies.

[4] = Degradation of O-acyl pilocarpic acid esters and formation of pilocarpine in 75% human plasma; format: in vitro ADME; settings: for half-life: 75% plasma
From the text: ^b In 75% human plasma (pH 7.4) the 4methylbenzyl ester of pilocarpic
O--acyl esters as determined by HPLC.

[5] = Hydrolysis/stability of O-acyl pilocarpic acid esters in plasma-free buffer (specific base catalysis); format: physicochemical; settings: for kOH (catalytic rate constant, specific base-catalyzed hydrolysis): 37° C., based on hydroxide ion activity; for half-life: buffer
Method: ^c The hydrolysis is specific basecatalyzed and the data shown were
obtained by extrapolating experimental rate constants at pH 10-12 to pH
7.4. At 20° C. the t0.5 values were 4.5 and 1.4 years, […]

[6] = octanol/phosphate buffer, pH 7.4, Partition coefficients (P)
[7] = 0.5% pilocarpine nitrate equivalent
[8] = 75% human plasma (pH 7.4) at 37° C., in words
[9] = 75% human plasma (pH 7.4) at 37° C., read-out: half-lives of degradation in 75% human plasma
[10] = pH 7.4, 20° C., hydrolysis in buffer pH 7.4, extrapolated (Table 2 footnote c), read-out: t0.5 values at 20° C. (converted)
[11] = pH 7.4, 37° C., extrapolated from rate constants at pH 10-12 to pH 7.4, read-out: t0.5 of hydrolysis to pilocarpic acid 4-methylbenzyl ester, pH 7.4 buffer (converted)
[12] = octanol/buffer, pH 7.4, di-esters (Table 3), read-out: log P octanol/buffer pH 7.4
[13] = octanol/phosphate buffer, pH 7.4, octanol / 0.05 M phosphate buffer pH 7.40, O-acyl derivatives of pilocarpic acid 4-methylbenzyl ester (Table 2), read-out: Partition coefficients (P) (converted)
[14] = human, pH 7.4, 37° C., di-esters (Table 3), read-out: t0.5 human plasma (75%)
[15] = 25 μl of 0.25% (pilocarpine nitrate equivalent), FIGS. 6 and 7

Structure (SMILES): CCCCOC(=O)[C@@H](CC)[C@H](CO)Cc1cncn1C [Example 2, Pilocarpic Acid Butyl Ester]
- half-life (physchem; buffer, pH 7.4): 13.7 h
- logD [1, 6]: 1.58

Structure (SMILES): CC[C@H](C(=O)OCc1ccccc1)[C@H](CO)Cc1cncn1C [Example 3, Pilocarpic Acid Benzyl Ester]
- hygroscopicity [2]: hygroscopic
- duration of miotic effect compared with pilocarpine (eyes of the rabbits; [7]): most significantly and dramatically longer
- overall miotic effect compared with pilocarpine (eyes of the rabbits; [7]): significantly greater in their overall effect
- half-life (physchem; buffer, pH 7.4): 0.833 h
- logD [1, 6]: 1.82

Structure (SMILES): CC[C@H](C(=O)OCc1ccc(Cl)cc1)[C@H](CO)Cc1cncn1C [Example 4, Pilocarpic Acid 4-Chlorobenzyl Ester]
- duration of miotic effect compared with pilocarpine (eyes of the rabbits; [7]): most significantly and dramatically longer
- overall miotic effect compared with pilocarpine (eyes of the rabbits; [7]): significantly greater in their overall effect
- half-life (physchem; buffer, pH 7.4): 0.5 h
- logD [1, 6]: 2.54

Structure (SMILES): CC[C@H](C(=O)OCc1ccc(C)cc1)[C@H](CO)Cc1cncn1C [Example 5, Pilocarpic Acid 4-Methylbenzyl Ester]
- shelf-life (time for 10% decomposition) at 4° C. ([3]; aqueous solution pH 4.0, 4° C.): 3.8 years
- shelf-life (time for 10% decomposition) at 20° C. ([3]; aqueous solution pH 4.0, 20° C.): about 1.5 years
- extent of cyclization to pilocarpine in plasma [4, 8]: cyclized quantitatively to pilocarpine
- half-life ([4]; 75% human plasma (pH 7.4) at 37° C., after formation from the O-acyl esters): 1.38 h
- duration of miotic effect compared with pilocarpine (eyes of the rabbits; [7]): most significantly and dramatically longer
- overall miotic effect compared with pilocarpine (eyes of the rabbits; [7]): significantly greater in their overall effect
- half-life (physchem; buffer, pH 7.4): 1.28 h
- half-life (physchem; plasma-free buffer): 1.28 h
- logD [1, 6]: 2.31

Structure (SMILES): CC[C@H](C(=O)OCc1ccccc1C)[C@H](CO)Cc1cncn1C [Example 6, Pilocarpic Acid 2-Methylbenzyl Ester]
- logD [1, 6]: 2.27

Structure (SMILES): CC[C@H](C(=O)OCCc1ccccc1)[C@H](CO)Cc1cncn1C [Example 9, Pilocarpic Acid 2-Phenylethyl Ester]
- log P ([1]; octanol/phosphate buffer): 2.16
- logD [1, 6]: 2.16

Structure (SMILES): CC[C@H](C(=O)OCc1ccc(C)cc1)[C@H](COC(=O)c1ccccc1)Cc1cncn1C [Example 11, O-Benzoyl Pilocarpic Acid 4-Methylbenzyl Ester]
- yield of pilocarpic acid 4-methylbenzyl ester formed in plasma [4, 8]: quantitative amounts
- sum of the concentrations of O-benzoyl di-ester, intermediate ester and pilocarpine at any time ([4]; 75% human plasma, FIG. 2): 100±3%
- half-life [4, 9]: 0.267 h
- duration of miotic activity (eyes of the rabbits; 25 μl, 0.5% pilocarpine nitrate equivalent, FIG. 4): 4.5 h
- bioavailability relative to pilocarpine (eyes of the rabbits; FIG. 4, 0.5% pilocarpine nitrate equivalent): approximately 4 fold
- duration of miotic activity of the di-esters (eyes of the rabbits): approximately 4.5 hours
- kOH (catalytic rate constant, specific base-catalyzed hydrolysis) [5]: 0.0667 M⁻¹ s⁻¹
- half-life [5, 10]: 1640 days
- half-life [5, 11]: 200 days
- logD [1, 12]: 4.7
- logD [1, 13]: 4.7

Structure (SMILES): CC[C@H](C(=O)OCc1ccc(C)cc1)[C@H](COC(C)=O)Cc1cncn1C [Example 12, O-Acetyl Pilocarpic Acid 4-Methylbenzyl Ester]
- yield of pilocarpic acid 4-methylbenzyl ester formed in plasma [4, 8]: quantitative amounts
- half-life [4, 9]: 0.4 h
- duration of miotic activity of the di-esters (eyes of the rabbits): approximately 4.5 hours
- kOH (catalytic rate constant, specific base-catalyzed hydrolysis) [5]: 0.21 M⁻¹ s⁻¹
- half-life [5, 10]: 511 days
- half-life [5, 11]: 62.5 days
- logD [1, 12]: 3.16
- logD ([1]; octanol/phosphate buffer, pH 7.4, octanol / 0.05 M phosphate buffer pH 7.40 (Table 2), read-out: log P): 3.16
- logD [1, 13]: 3.16

Structure (SMILES): CC[C@H](C(=O)OC(C)c1ccccc1)[C@H](CO)Cc1cncn1C (some centres unmarked) [Example 13, Pilocarpic Acid 1-Phenylethyl Ester]
- log P ([1]; octanol/phosphate buffer): 2.08
- logD [1, 6]: 2.08

Structure (SMILES): CC[C@H](C(=O)OCc1ccccc1)[C@H](COC(=O)c1ccccc1)Cc1cncn1C [Example 14, O-Benzoyl Pilocarpic Acid Benzyl Ester]
- predicted shelf-life at 20° C. ([3]; aqueous solution pH 3-5, 20° C., temperature-accelerated kinetic stability studies): > 20 years
- predicted shelf-life at 25° C. ([3]; aqueous solution pH 3-5, 25° C., temperature-accelerated kinetic stability studies): > 8 years
- pH region of maximum stability ([3]; aqueous solutions): 3-5 pH
- half-life [4, 14]: 0.2 h
- time for which miotic effect is apparent (eyes of the rabbits; [15]): up to 4.5 hours
- kOH (catalytic rate constant, specific base-catalyzed hydrolysis) [5]: 0.0633 M⁻¹ s⁻¹
- logD [1, 12]: 4.22

Structure (SMILES): CC[C@H](C(=O)OCc1ccc(Cl)cc1)[C@H](COC(=O)c1ccccc1)Cc1cncn1C [Example 15, O-Benzoyl Pilocarpic Acid 4-Chlorobenzyl Ester]
- half-life [4, 14]: 0.283 h
- time for which miotic effect is apparent (eyes of the rabbits; 25 μl of 0.125% (pilocarpine nitrate equivalent), FIG. 6): up to 4.5 hours
- kOH (catalytic rate constant, specific base-catalyzed hydrolysis) [5]: 0.0567 M⁻¹ s⁻¹
- logD [1, 12]: 4.75

Structure (SMILES): CC[C@H](C(=O)OCCc1ccccc1)[C@H](COC(=O)c1ccccc1)Cc1cncn1C [Example 16, O-Benzoyl Pilocarpic Acid 2-Phenylethyl Ester]
- half-life [4, 14]: 0.25 h
- kOH (catalytic rate constant, specific base-catalyzed hydrolysis) [5]: 0.0633 M⁻¹ s⁻¹
- logD [1, 12]: 4.6

Structure (SMILES): CC[C@H](C(=O)OCc1ccccc1)[C@H](COC(=O)c1cccc(Cl)c1)Cc1cncn1C [Example 17, O-3-Chlorobenzoyl Pilocarpic Acid Benzyl Ester]
- half-life [4, 14]: 0.417 h
- time for which miotic effect is apparent (eyes of the rabbits; [15]): up to 4.5 hours
- kOH (catalytic rate constant, specific base-catalyzed hydrolysis) [5]: 0.243 M⁻¹ s⁻¹
- logD [1, 12]: 4.93

Structure (SMILES): CCCC(=O)OCC(Cc1cncn1C)C(CC)C(=O)OCc1ccc(C)cc1 (centres unmarked) [Example 18, O-Butyryl Pilocarpic Acid 4-Methylbenzyl Ester]
- half-life [4, 14]: 0.25 h
- time for which miotic effect is apparent (eyes of the rabbits; [15]): up to 4.5 hours
- kOH (catalytic rate constant, specific base-catalyzed hydrolysis) [5]: 0.0583 M⁻¹ s⁻¹
- logD [1, 12]: 4.09

Structure (SMILES): CC[C@H](C(=O)OCc1ccccc1)[C@H](COC(=O)Cc1ccccc1)Cc1cncn1C [Example 19, O-Phenylacetyl Pilocarpic Acid Benzyl Ester]
- half-life [4, 14]: 0.0667 h
- time for which miotic effect is apparent (eyes of the rabbits; [15]): up to 4.5 hours
- kOH (catalytic rate constant, specific base-catalyzed hydrolysis) [5]: 0.362 M⁻¹ s⁻¹
- logD [1, 12]: 3.85

Structure (SMILES): CC[C@H](C(=O)OCc1ccccc1)[C@H](COC(=O)c1cccnc1)Cc1cncn1C [Example 20, O-Nicotinoyl Pilocarpic Acid Benzyl Ester]
- half-life [4, 14]: 0.1 h
- time for which miotic effect is apparent (eyes of the rabbits; [15]): up to 4.5 hours
- kOH (catalytic rate constant, specific base-catalyzed hydrolysis) [5]: 0.74 M⁻¹ s⁻¹
- logD [1, 12]: 2.9

Structure (SMILES): CC[C@@H]1C(=O)OC[C@@H]1Cc1cncn1C [Pilocarpine, reference compound]
- shelf life in aqueous solutions ([3]; pilocarpine, pH 6.4 and 20° C.): less than 1 year
- water solubility of pilocarpine ([2]; free base form and various salts): extremely water-soluble
